From PubChem BioAssay AID179 (DTP/NCI, 2004)
Activity calls are given as the source filed them.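 How the source made its calls: active means compounds giving half or more protection of infected cells from virus-caused growth loss, again on retest; inactive means the rest.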

Tested on: CEM cells HIV-1 protection, formazan growth assay
Test: NCI AIDS Antiviral Assay
Conditions: for IC50: measured here: growth of uninfected CEM cells
Procedure, shortened: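 Category rules: moderately active means at least 50% protection on retest, and confirmed active means 100% protection reproducibly. The underlying data came from a formazan growth assay in HIV-1-infected CEM cells.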

SMILES | outcome | EC50 | IC50
CC(C)(C)OC(=O)N(CCCN)CCCCN(CCCN)C(=O)OC(C)(C)C | inactive | – | –
COc1ccccc1-n1c(NN)nc2ccc(Br)cc2c1=O | – | > 138 µM | 30.9 µM
CC1(C)C(=O)C(C)(C)C1=S | – | > 219 µM | > 219 µM
CC1=C(O)C(=O)C2C(=O)C1C1Cc3ccccc3C21 (stereo not drawn) | – | > 513 µM | > 513 µM
O=C1CCCC(=O)N1CCc1c[nH]c2ccccc12 | inactive | – | –
CCCc1n[nH]c(=O)n1N1C(=O)C=CC1=O | – | > 200 µM | > 200 µM
CC(C)CCC[C@@H](C)C1CCC2[C@@H]3CCC4CC(CCC=C(c5cc(Cl)c(OC(=O)c6ccccc6)c(C(=O)O)c5)c5cc(Cl)c(OC(=O)c6ccccc6)c(C(=O)O)c5)CC[C@]4(C)C3CC[C@@]21C (stereo partly drawn) | – | > 200 µM | 141 µM
Cc1cn(C2C[C@@H]3C(COC(c4ccc([N+](=O)[O-])cc4)N3O)O2)c(=O)[nH]c1=O (stereo partly drawn) | – | > 200 µM | > 200 µM
CC1=C(C#N)C2(N)OC1(C)C1C(=O)C=CC(=O)C12 (stereo not drawn) | – | > 200 µM | 23.4 µM
O=C1CCSC2=C1SCc1sccc12 | inactive | – | –
CC(=O)OC1C=CS(=O)(=O)C1 (stereo not drawn) | – | > 200 µM | 15.8 µM
N#Cc1c(-c2ccccc2)cc(-c2ccccc2)[nH]c1=O | – | > 36.3 µM | > 36.3 µM
CCN(CC)CCn1nc(N)c2nc3cc(Cl)ccc3nc21 | – | > 100 µM | 51.3 µM
COc1cc(C(=O)O)ccc1OS(=O)(=O)O | – | > 200 µM | > 200 µM
O=C(O/N=C1/CCC/C1=C\c1ccccc1)c1ccc(Cl)cc1 | inactive | – | –
O=C(O)c1ccc(NC(=O)C2C(=O)C(=O)N(c3ccc(C(=O)O)cc3)C2=O)cc1 (stereo not drawn) | – | > 47.9 µM | > 47.9 µM
CCOC(=O)C1(C(=O)OCC)CC(=O)[C@@]2(C1)OCC[C@H]1OC(=O)C[C@H]12 | – | > 200 µM | > 200 µM
S=C(Cc1ccc2c(c1)Sc1ccccc1O2)N1CCOCC1 | – | > 200 µM | 27.5 µM
c1ccc2[nH]c(CSc3nc4ccccc4s3)nc2c1 | – | > 200 µM | 120 µM
COc1cc2c(c(OC)c1OC)-c1oncc1CC2 | – | 166 µM | 282 µM
CCCCC1C(=O)N2C=C(c3ccccc3)c3ccccc3N2C1=O (stereo not drawn) | – | > 100 µM | 60.3 µM

SMILES | outcome | EC50 | IC50
O=C1C(Br)=C(C2=CC(=P(c3ccccc3)(c3ccccc3)c3ccccc3)C=C2)C(=O)C(Br)=C1C1=CC(=P(c2ccccc2)(c2ccccc2)c2ccccc2)C=C1 | – | > 50.1 µM | > 50.1 µM
CC1(C)C(C#N)C(=O)N=C(N)C1C(N)=O (stereo not drawn) | – | > 200 µM | > 200 µM
CCCOC(=O)Nc1ccc2nc(N(C)C)sc2c1 | – | > 245 µM | 66.1 µM
COc1nc2c(c(=O)[nH]1)N=C(c1ccccc1)CC(c1ccccc1)N2 (stereo not drawn) | – | > 200 µM | > 200 µM
[C-]#[O+].[C-]#[O+].[C-]#[O+].[C-]#[O+].[Mo].c1ccc(P(CCP(CCP(c2ccccc2)c2ccccc2)c2ccccc2)CCP(c2ccccc2)c2ccccc2)cc1 (stereo not drawn) | – | > 0.617 µM | > 0.617 µM
O=c1c2c(c1=O)C1(SCCCS1)c1cc(Cl)ccc1O2 | – | > 200 µM | > 200 µM
CC(=O)NCC1OC2COC(c3ccccc3)OC2C(NC(=O)c2ccccc2)C1OC(=O)c1ccccc1 (stereo not drawn) | inactive | – | –
O=C1c2ccccc2C(=O)C1(Br)c1ccccc1 | – | > 200 µM | > 200 µM
C=C1C(O)CC[C@]2(C)C1C1OC(C)(C)O[C@]13CC(=O)C(C)=C([C@H]1OC(C)(C)OC12)C3(C)C (stereo partly drawn) | – | > 200 µM | > 200 µM
Cn1cc(-c2ccc3c4ccccc4n(C)c3c2)c2ccccc21 | – | > 8.71 µM | > 8.71 µM
CC(=O)OC[C@H]1CN(OC(C)=O)C[C@@H](n2cc(C)c(=O)[nH]c2=O)O1 | – | > 200 µM | > 200 µM
CCN1C[C@]2(COC)CCC(OC(=O)c3ccc(OC)cc3)C34[C@@H]5C[C@@H]6C(OC(C)=O)[C@@H]5[C@](OC(C)=O)(C[C@@H]6OC)[C@@H](C(OC)[C@@H]32)[C@H]14 (stereo partly drawn) | inactive | – | –
O=C1c2ccccc2C(=O)c2sc(Nc3ccc(Cl)cc3)nc21 | – | > 11 µM | 4.68 µM
CC[C@@]1(C[C@H]2C[C@@]3(C(=O)OC)c4[nH]c5ccccc5c4CCN3C2=S)COC2(CCCCC2)O1 | – | > 200 µM | > 200 µM
Cc1cc(C)nc(NS(=O)(=O)c2ccc(Nc3c4ccccc4nc4c(C(=O)Nc5ccc(S(=O)(=O)Nc6cc(C)on6)cc5)ccc(Cl)c34)cc2)n1 | – | > 46.8 µM | 41.7 µM
CCCCNCC(=O)O[C@]1(CC)C(=O)OCc2c1cc1n(c2=O)Cc2cc3ccccc3nc2-1 | – | > 10 µM | 0.0776 µM
O=C1C2CCC(N1c1ccc(F)cc1)n1c(=O)n(-c3ccccc3)c(=O)n12 (stereo not drawn) | inactive | – | –
CC1OC(n2cc(F)c(=O)[nH]c2=O)C=CC1=O (stereo not drawn) | – | > 1050 µM | 14.1 µM
CCCCCCCCCCCCCCCCOP(=O)(O)OP(=O)(O)OCC1OC(n2ccc(N)nc2=O)CC1O (stereo not drawn) | – | > 100 µM | > 100 µM
COc1ccc(C[C@H](N)C(=O)N2C[C@@H](CO)C[C@@H](n3ccc(=O)[nH]c3=O)C2)cc1 | – | > 309 µM | > 309 µM
CCN(CC)CCOCC1CCCN2CCCCC12 (stereo not drawn) | – | > 200 µM | > 200 µM

SMILES | outcome | EC50 | IC50
COc1ccc2c(c1)[n+](=O)c(C(C)=O)c(C)n2[O-] | – | > 1000 µM | 355 µM
CCn1ccnc1.CCn1ccnc1.O=C([O-])CC(O)C(=O)[O-].[Pt+2] (stereo not drawn) | – | > 200 µM | > 200 µM
O=c1c2ccccc2nc2ccc3c(Cl)[nH][nH]c3c12 | inactive | – | –
O=C(OCCN1CCNCC1)c1cc2ccccc2[nH]1 | – | > 200 µM | 26.9 µM
COc1ccc(-c2cc(-c3ccccc3)c3ccccc3n2)c(OC)c1OC | – | > 200 µM | > 200 µM
O=C1/C(=C/c2cccc(Cl)c2)CCc2ccccc21 | – | > 10 µM | > 10 µM
CN(C)CC1CCCC(CN(C)C)C1=NO (stereo not drawn) | inactive | – | –
O=C1c2ccccc2C(=O)C1(Cl)C(Cl)c1ccc([N+](=O)[O-])cc1 (stereo not drawn) | – | > 200 µM | 12 µM
CC(O)CC[P+](c1ccccc1)(c1ccccc1)c1ccccc1 (stereo not drawn) | – | > 200 µM | 4.27 µM
COC(=O)/C=C/N1CC1 | – | > 200 µM | > 200 µM
C=C1C(=O)OC2C=C(CCC(C)=O)C(C)C(OC(C)=O)CC12 (stereo not drawn) | inactive | – | –
O=[N+]([O-])c1cc2c(cc1O)[nH]c1cccc([N+](=O)[O-])c12 | – | > 13.8 µM | > 13.8 µM
COc1ccc2c(c1)[n+]([O-])c(/C(C)=N/NC(N)=S)c(C)[n+]2[O-] | – | > 209 µM | 102 µM
O=S(=O)(O)CN(CCN(CS(=O)(=O)O)CS(=O)(=O)O)CS(=O)(=O)O | – | > 200 µM | 20.4 µM
N#Cc1sc2c(c1OC(=O)c1cccs1)c(=O)n(-c1ccccc1)c(=S)n2-c1ccccc1 | – | > 200 µM | 6.03 µM
OCC(O)C(OC1OC(CO)C(O)C(O)C1O)C(O)C(/C=N\Nc1ccccc1)=N/Nc1ccccc1 (stereo not drawn) | – | > 200 µM | 4.9 µM
COc1cc2c(c(C(C)(C)C)c1)OC1(O)C2=CC(=O)C=C1C(C)(C)C (stereo not drawn) | – | > 20 µM | 0.372 µM
Clc1ccc(C(c2ccc(Cl)cc2)c2cncnc2)cc1 | inactive | – | –
Cc1nnc(CC#N)n1NC(=O)CC#N | – | > 200 µM | > 200 µM
Cc1cc(C)c(P2C(=C(O[Si](C(C)C)(C(C)C)C(C)C)C(C)(C)C)C2(c2ccccc2)c2ccccc2)c(C)c1 (stereo not drawn) | – | > 100 µM | > 100 µM
